# Laboratory results published in patent publication US12337010B2, “Compositions and methods of treatment using nicotinamide mononucleotide” (Washington University, priority 2017, dated 2025).
# Legend:
# [1] = tested on: Slc12a8 mRNA expression; experiment: Slc12a8 mRNA expression by quantitative RT-PCR in cells and ex vivo small intestine explants; assay type: cell-based, mouse; conditions: FK866 plus NMN; primary hepatocytes, NIH3T3 fibroblasts (24 h), jejunum and ileum explants (4 h)
# Experimental: Cell culture and ex vivo small intestine explant culture. […] For Slc12a8 mRNA expression analysis, 2.5×10^5 cells per well were incubated in 6-well plates with DMEM with 1% FBS containing 0.1% DMSO or 100 nM FK866 or 100 nM FK866 plus 100 μM NMN for 24 h. Small intestines from 3-month old B6 male mice were cut into three segments with duodenum/jejunum/ileum length ratios of 1:3:2 (Wang, H. H., et al., Hepatology 45, 998-1006, 2007). […] Cellular and tissue RNA samples were analyzed by quantitative RT-PCR, as described previously (Stein, L. R. & Imai, S., EMBO J., 33, 1321-1340, 2014).
# (§1) The amounts of adenosine produced were determined by HPLC. […] Silencing efficiencies were evaluated by quantitative RT-PCR.
# FIG. 2 illustrates that Slc12a8 is highly expressed in the small intestine and pancreas and moderately in the liver and white adipose tissue of B6 male mice at 3 months of age (n=3 mice). […] Cells were treated with these compounds for 24 h (n=4 mice for hepatocytes treated with DMSO and FK866, and n=3 mice for hepatocytes treated with FK866 and NMN; n=6 for NIH3T3 cells; analyzed using ANOVA with Tukey's test). FIG. 5 illustrates surface and intracellular Slc12a8 protein expression levels were measured by flow cytometry analysis in NIH3T3 cells treated with FK866 or FK866 plus NMN for 48h. […]
# [2] = tested on: various types of primary cells; conditions: NMN co-administered with FK866, compared to NMN in the absence of FK866; cited from earlier work
# [3] = tested on: NIH3T3 cells; experiment: Intracellular NAD+ levels in control and Slc12a8-OE NIH3T3 cells; assay type: cell-based, mouse; conditions: Slc12a8-OE cells, additional 1-hr incubation with 100 μM NMN after inhibitor cocktail
# Text: NAD+ and NMN measurements by HPLC.
# [4] = tested on: primary mouse hepatocytes; experiment: NMN uptake in primary mouse hepatocytes, intracellular NMN by HPLC; assay type: cell-based
# Experimental: as §1
# Primary mouse hepatocytes were pretreated with 500 nM FK866 for 24 h and then incubated with a cocktail of 20 μM dipyridamole, 500 μM AOPCP, and 500 nM FK866, with or without 100 μM NMN. NMN was measured by HPLC (n=4 mice, except for 3 data sets for 15 and 30 minute time points for inhibitors only; analyzed using ANOVA with Sidak's test).
# To measure the knockdown efficiencies of Slc12a8 and Nrk1 mRNA in primary mouse hepatocytes, cells were treated with scramble and Slc12a8 or Nrk1 siRNA for 72 h (n=5 mice for Slc12a8 silencing and n=3 for Nrk1 silencing; analyzed by unpaired […] t-test). Without being limited by theory, these conditions knocked down expression of Slc12a8 and Nrk1, a major NR kinase that converts NR to NMN intracellularly (Belenky, P., et al., Cell, 129, 473-484, 2007). Primary hepatocytes treated with scramble, Slc12a8, and Nrk1 siRNA were assayed at 1 min after addition of 100 μM NMN via HPLC. Culture conditions were the same as described in Example 3 (n=5 mice for Slc12a8 silencing and n=3 for Nrk1 silencing; analyzed by ANOVA with Tukey's test). The knockdown efficiencies for both genes are approximately 80% (FIG. 7).
smiles,measurement,setting,value
"NC(=O)c1ccc[n+]([C@@H]2O[C@H](COP(=O)([O-])O)[C@@H](O)[C@H]2O)c1 [NMN, nicotinamide mononucleotide]",Slc12a8 expression induced by FK866,[1],suppressed
same,NAD+ increase,[2],higher NAD+ increases
same,intracellular NAD+ levels,[3],restore NAD+ levels to the original levels
same,intracellular NMN levels,"[4]; 100 μM NMN with 20 μM dipyridamole, 500 μM AOPCP, 500 nM FK866, 1 min time point vs control",significantly increase
same,NMN uptake,"[4]; Nrk1-knockdown hepatocytes, 1 min after 100 μM NMN",no significant reduction
same,fast uptake of NMN,"[4]; Slc12a8-knockdown hepatocytes, 1 min after 100 μM NMN",completely abrogated
